SMILES strings stand for the structures.

What is called IC50 is the midpoint of a concentration-inhibition curve.

The target of the first experiment is recombinant HIV-1 integrase (Human immunodeficiency virus type 1 group M subtype B, UniProt P12497). Put plainly: High throughput electrochemiluminescent. In kind it is biochemical.
Conditions: not given
Regarding `O=C(O)/C(O)=C/C(=O)c1cn(Cc2ccc(F)cc2)c2ccc(F)cc2c1=O` [6b, 4-[6-Fluoro-1-(4-fluorophenyl)methyl-4(1H)-quinolinon-3-yl]-2-hydroxy-4-oxo-2-butenoic Acid], the IC50 amounted to 30 nM.

As to `O=C(O)/C(O)=C/C(=O)c1cn(Cc2ccc(F)cc2)c2c(Cl)cccc2c1=O` [6g, 4-[8-Chloro-1-(4-fluorophenyl)methyl-4(1H)-quinolinon-3-yl]-2-hydroxy-4-oxo-2-butenoic Acid], the IC50 was 23 nM.

For `CCOC(=O)/C(O)=C/C(=O)c1c[nH]c2cc(Cl)ccc2c1=O` [7b, 4-(7-Chloro-4(1H)-quinolinon-3-yl)-2-hydroxy-4-oxo-2-butenoic Acid Ethyl Ester], the IC50 was more than 111000 nM.

Consider `O=C(O)/C(O)=C/C(=O)c1c[nH]c2ccc(Cl)cc2c1=O` [8a, 4-(6-Chloro-4(1H)-quinolinon-3-yl)-2-hydroxy-4-oxo-2-butenoic Acid], for which the IC50 is more than 111000 nM.

Staying with this experiment, now noted: relative to 6f.
In the case of `O=C(O)/C(O)=C/C(=O)c1cn(Cc2ccc(F)cc2)c2cc(Cl)c(Cl)cc2c1=O` [6h, 4-[6,7-Dichloro-1-(4-fluorophenyl)methyl-4(1H)-quinolinon-3-yl]-2-hydroxy-4-oxo-2-butenoic Acid], the “times less potent than parent compound 6f (ST, HTECL)” value was “approximately 1.5”.

On to `O=C(O)/C(O)=C/C(=O)c1cn(Cc2ccc(F)cc2)c2cc(N3CCCC3)ccc2c1=O` [6i, 4-[1-(4-Fluorophenyl)methyl-7-(pyrrolidin-1-yl)-4(1H)-quinolinon-3-yl]-2-hydroxy-4-oxo-2-butenoic Acid], for which the “times less potent than parent compound 6f (ST, HTECL)” value is recorded as “approximately 1.5”.

The record behind these values is article PMC2646871 (Journal of Medicinal Chemistry, 2008).
